Like-named read-outs stand apart in the source and are kept apart here.
How the values were obtained:
P. aeruginosa AUMC-Pa-3 = assay: microbe, parasite or virus in culture; conditions: for MIC: Pseudomonas aeruginosa, AUMCPA3, 18 h, read-out: MICa: MIC of the antibiotic; for FICI / MICac: MIC of the antibiotic in the combination: strain AUMC-Pa-3; for FICI: antibiotic + D-11 (MICb/MICbc 128/4); for MICac: MIC of the antibiotic in the combination: with D-11 at MICbc 4, unit not given
Procedure, shortened: (§1)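 Growth inhibition was scored by eye after an 18 h, 37 °C incubation of drug-bacteria mixtures in Mueller-Hinton broth. Inoculum suspension held approximately 1 × 10^6 CFU/mL before 1:1 mixing.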

P. aeruginosa AUMC-Pa-4 = assay: microbe, parasite or virus in culture; conditions: for FICI: antibiotic + D-11 (MICb/MICbc 128/4); for MICac: MIC of the antibiotic in the combination: with D-11 at MICbc 4
Procedure, shortened: as §1

P. aeruginosa AUMC-Pa-5 = assay: microbe, parasite or virus in culture; conditions: strain AUMC-Pa-5; for FICI: antibiotic + D-11 (MICb/MICbc 64/4); for MICa: MIC of the antibiotic: antibiotic alone; for MICa: MIC of the antibiotic / MICac: MIC of the antibiotic in the combination: unit not given; for MICac: MIC of the antibiotic in the combination: with D-11 at MICbc 4
Procedure, shortened: as §1

P. aeruginosa AUMC-Pa-6 = assay: microbe, parasite or virus in culture; conditions: strain AUMC-Pa-6; for MICa: MIC of the antibiotic: antibiotic alone; for MICa: MIC of the antibiotic / MICac: MIC of the antibiotic in the combination: unit not given; for MICac: MIC of the antibiotic in the combination: with D-11 at MICbc 4
Procedure, shortened: as §1

P. aeruginosa PAO1 = assay: microbe, parasite or virus in culture; conditions: PAO1; for MIC: Pseudomonas aeruginosa, PAO1, 18 h, read-out: MICa: the MIC of antibiotics, S3 Table
Procedure, shortened: as §1

P. aeruginosa ATCC27853 = assay: microbe, parasite or virus in culture; parameters: MICa: MIC of the antibiotic / MICac: MIC of the antibiotic in the combination: unit not given beside the values; conditions: for MIC: Pseudomonas aeruginosa, ATCC27853, 18 h, read-out: MICa: MIC of the antibiotic
Procedure, shortened: as §1

P. aeruginosa NR-31040 = assay: microbe, parasite or virus in culture; parameters: MICa: MIC of the antibiotic / MICac: MIC of the antibiotic in the combination: unit not given beside the values; conditions: for FICI: antibiotic + D-11 (MICb/MICbc 128/4); for MICac: MIC of the antibiotic in the combination: with D-11 at MICbc 4
Procedure, shortened: as §1

P. aeruginosa NR-31041 = assay: microbe, parasite or virus in culture; parameters: MICa: MIC of the antibiotic / MICac: MIC of the antibiotic in the combination: unit not given beside the values; conditions: for MIC: Pseudomonas aeruginosa, NR31041, 18 h, read-out: MICa: MIC of the antibiotic; for FICI / MICac: MIC of the antibiotic in the combination: strain NR-31041; for FICI: antibiotic + D-11 (MICb/MICbc 64/4); for MICac: MIC of the antibiotic in the combination: with D-11 at MICbc 4, unit not given
Procedure, shortened: as §1

P. aeruginosa PA14 = assay: microbe, parasite or virus in culture; parameters: MICa: MIC of the antibiotic / MICac: MIC of the antibiotic in the combination: unit not given beside the values; conditions: for MIC: Pseudomonas aeruginosa, PA14, 18 h, read-out: MICa: MIC of the antibiotic; for FICI / MICac: MIC of the antibiotic in the combination: strain PA14; for FICI: antibiotic + D-11 (MICb/MICbc 128/4); for MICac: MIC of the antibiotic in the combination: with D-11 at MICbc 4, unit not given
Procedure, shortened: as §1

P. aeruginosa PAK = assay: microbe, parasite or virus in culture; parameters: MICa: MIC of the antibiotic / MICac: MIC of the antibiotic in the combination: unit not given beside the values; conditions: for MIC: Pseudomonas aeruginosa, 18 h, read-out: MICa: MIC of the antibiotic; for FICI / MICac: MIC of the antibiotic in the combination: strain PAK; for FICI: antibiotic + D-11 (MICb/MICbc 64/4); for MICac: MIC of the antibiotic in the combination: with D-11 at MICbc 4, unit not given
Procedure, shortened: as §1

P. aeruginosa HM-214 = conditions: strain HM-214; antibiotic + D-11 (MICb/MICbc 128/4)
Procedure, shortened: as §1

P. aeruginosa AUMC-Pa-1 = conditions: strain AUMC-Pa-1; antibiotic + D-11 (MICb/MICbc 128/4)
Procedure, shortened: as §1

P. aeruginosa AUMC-Pa-2 = conditions: strain AUMC-Pa-2; antibiotic + D-11 (MICb/MICbc 64/4)
Procedure, shortened: as §1

[1] = tested on: clinical P. aeruginosa isolates; assay: microbe, parasite or virus in culture; conditions: Pseudomonas aeruginosa, 18 h, antibiotic alone
Procedure, shortened: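 Broth microdilution per CLSI in MHB, two-fold drug dilutions mixed with an equal volume of bacteria at about 1 × 10^6 CFU/mL. After 18 h at 37 °C, MIC taken as the lowest concentration with no visible growth; run in triplicate.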

[2] = strain AUMC-Pa-4, unit not given
[3] = S3 Table, antibiotic + 2 μM D-11
[4] = strain NR-31040, unit not given
[5] = read-out: Antibiotic sensibility (MIC) of clinical P. aeruginosa isolate AUMC-Pa-1, strain AUMC-Pa-1
[6] = read-out: Antibiotic sensibility (MIC) of clinical P. aeruginosa isolate AUMC-Pa-2, strain AUMC-Pa-2
[7] = read-out: Antibiotic sensibility (MIC) of clinical P. aeruginosa isolate AUMC-Pa-3, strain AUMC-Pa-3
[8] = read-out: Antibiotic sensibility (MIC) of clinical P. aeruginosa isolate AUMC-Pa-4, strain AUMC-Pa-4
[9] = read-out: Antibiotic sensibility (MIC) of clinical P. aeruginosa isolate AUMC-Pa-5, strain AUMC-Pa-5
[10] = read-out: Antibiotic sensibility (MIC) of clinical P. aeruginosa isolate AUMC-Pa-6, strain AUMC-Pa-6
[11] = read-out: Antibiotic sensibility (MIC) of clinical P. aeruginosa isolate HM-214, strain HM-214
[12] = read-out: Antibiotic sensibility (MIC) of clinical P. aeruginosa isolate NR-31040, strain NR-31040
[13] = read-out: Antibiotic sensibility (MIC) of clinical P. aeruginosa isolate NR-31041, strain NR-31041

CO[C@H]1/C=C/O[C@@]2(C)Oc3c(C)c(O)c4c(c3C2=O)C2=NC3(CCN(CC(C)C)CC3)NC2=C(NC(=O)/C(C)=C\C=C\[C@H](C)[C@H](O)[C@@H](C)[C@@H](O)[C@@H](C)[C@H](OC(C)=O)[C@@H]1C)C4=O [Rifabutin]
MIC (P. aeruginosa AUMC-Pa-3): 16 µM | FICI (P. aeruginosa AUMC-Pa-3): 0.035 | MICac: MIC of the antibiotic in the combination (P. aeruginosa AUMC-Pa-3): 0.063 | FICI (P. aeruginosa AUMC-Pa-4; strain AUMC-Pa-4): 0.094 | MICa: MIC of the antibiotic (P. aeruginosa AUMC-Pa-4; strain AUMC-Pa-4, antibiotic alone, unit not given): 16 | MICac: MIC of the antibiotic in the combination (P. aeruginosa AUMC-Pa-4; [2]): 1 | FICI (P. aeruginosa AUMC-Pa-5): 0.313 | MICa: MIC of the antibiotic (P. aeruginosa AUMC-Pa-5): 32 | MICac: MIC of the antibiotic in the combination (P. aeruginosa AUMC-Pa-5): 8 | FICI (P. aeruginosa AUMC-Pa-6; antibiotic + D-11 (MICb/MICbc 64/4)): 0.313 | MICa: MIC of the antibiotic (P. aeruginosa AUMC-Pa-6): 16 | MICac: MIC of the antibiotic in the combination (P. aeruginosa AUMC-Pa-6): 4 | MIC (P. aeruginosa PAO1; antibiotic alone): 32 µM | FICI (P. aeruginosa PAO1; [3]): 0.064 | FICI (P. aeruginosa PAO1; S3 Table, antibiotic + 4 μM D-11): 0.126 | MICac: the MIC for the antibiotic in the combination (P. aeruginosa PAO1; S3 Table, with 2 μM D-11): 0.0625 µM | MICac: the MIC for the antibiotic in the combination (P. aeruginosa PAO1; S3 Table, with 4 μM D-11): 0.03125 µM | MICa: the MIC of antibiotics (P. aeruginosa PAO1; S3 Table, antibiotic alone): 32 µM | MIC (P. aeruginosa ATCC27853): 16 µM | FICI (P. aeruginosa ATCC27853; strain ATCC27853, antibiotic + D-11 (MICb/MICbc 32/4)): 0.133 | MICac: MIC of the antibiotic in the combination (P. aeruginosa ATCC27853; strain ATCC27853, with D-11 at MICbc 4, unit not given): 0.25 | FICI (P. aeruginosa NR-31040; strain NR-31040): 0.094 | MICa: MIC of the antibiotic (P. aeruginosa NR-31040; strain NR-31040, antibiotic alone, unit not given): 32 | MICac: MIC of the antibiotic in the combination (P. aeruginosa NR-31040; [4]): 2 | MIC (P. aeruginosa NR-31041): 32 µM | FICI (P. aeruginosa NR-31041): 0.070 | MICac: MIC of the antibiotic in the combination (P. aeruginosa NR-31041): 0.25 | MIC (P. aeruginosa PA14): > 128 µM | FICI (P. aeruginosa PA14): 0.039 | MICac: MIC of the antibiotic in the combination (P. aeruginosa PA14): 2 | MIC (P. aeruginosa PAK): 16 µM | FICI (P. aeruginosa PAK): 0.078 | MICac: MIC of the antibiotic in the combination (P. aeruginosa PAK): 0.25 | FICI (P. aeruginosa HM-214): 0.039 | FICI (P. aeruginosa AUMC-Pa-1): 0.039 | FICI (P. aeruginosa AUMC-Pa-2): 0.070 | MIC [1, 5]: 32 µM | MIC [1, 6]: 8 µM | MIC [1, 7]: 16 µM | MIC [1, 8]: 16 µM | MIC [1, 9]: 32 µM | MIC [1, 10]: 16 µM | MIC [1, 11]: 32 µM | MIC [1, 12]: 32 µM | MIC [1, 13]: 32 µM

CO[C@H]1/C=C/O[C@@]2(C)Oc3c(C)c(O)c4c(O)c(c(/C=N/N5CCN(C)CC5)c(O)c4c3C2=O)NC(=O)/C(C)=C\C=C\[C@H](C)[C@H](O)[C@@H](C)[C@@H](O)[C@@H](C)[C@H](OC(C)=O)[C@@H]1C [Rifampicin]
MIC (P. aeruginosa AUMC-Pa-3): 16 µM | FICI (P. aeruginosa AUMC-Pa-3): 0.032 | MICac: MIC of the antibiotic in the combination (P. aeruginosa AUMC-Pa-3): 0.016 | MIC (P. aeruginosa AUMC-Pa-4; Pseudomonas aeruginosa, AUMCPA4, 18 h, read-out: MICa: MIC of the antibiotic): 16 µM | FICI (P. aeruginosa AUMC-Pa-4; strain AUMC-Pa-4): 0.047 | MICac: MIC of the antibiotic in the combination (P. aeruginosa AUMC-Pa-4; [2]): 0.25 | FICI (P. aeruginosa AUMC-Pa-5): 0.563 | MICa: MIC of the antibiotic (P. aeruginosa AUMC-Pa-5): 32 | MICac: MIC of the antibiotic in the combination (P. aeruginosa AUMC-Pa-5): 16 | MICa: MIC of the antibiotic (P. aeruginosa AUMC-Pa-6): 32 | MICac: MIC of the antibiotic in the combination (P. aeruginosa AUMC-Pa-6): 2 | MIC (P. aeruginosa PAO1; antibiotic alone): 32 µM | FICI (P. aeruginosa PAO1; [3]): 0.064 | MICac: the MIC for the antibiotic in the combination (P. aeruginosa PAO1; S3 Table, with 2 μM D-11): 0.0625 µM | MICac: the MIC for the antibiotic in the combination (P. aeruginosa PAO1; S3 Table, with 4 μM D-11): 0.01562 µM | MIC (P. aeruginosa ATCC27853): 16 µM | MIC (P. aeruginosa NR-31040; Pseudomonas aeruginosa, NR31040, 18 h, read-out: MICa: MIC of the antibiotic): 16 µM | FICI (P. aeruginosa NR-31040; strain NR-31040): 0.063 | MICac: MIC of the antibiotic in the combination (P. aeruginosa NR-31040; [4]): 0.25 | MIC (P. aeruginosa NR-31041): 32 µM | FICI (P. aeruginosa NR-31041): 0.064 | MICac: MIC of the antibiotic in the combination (P. aeruginosa NR-31041): 0.063 | MIC (P. aeruginosa PA14): > 128 µM | FICI (P. aeruginosa PA14): 0.039 | MICac: MIC of the antibiotic in the combination (P. aeruginosa PA14): 2 | MIC (P. aeruginosa PAK): 16 µM | FICI (P. aeruginosa PAK): 0.066 | MICac: MIC of the antibiotic in the combination (P. aeruginosa PAK): 0.063 | FICI (P. aeruginosa HM-214): 0.047 | FICI (P. aeruginosa AUMC-Pa-1): 0.032 | FICI (P. aeruginosa AUMC-Pa-2): 0.064 | MIC [1, 5]: 32 µM | MIC [1, 6]: 16 µM | MIC [1, 7]: 16 µM | MIC [1, 8]: 16 µM | MIC [1, 9]: 32 µM | MIC [1, 10]: 32 µM | MIC [1, 11]: 16 µM | MIC [1, 12]: 16 µM | MIC [1, 13]: 32 µM
